# Laboratory results published in EP0762895B1, “SYNTHETIC VACCINE FOR PROTECTION AGAINST HUMAN IMMUNODEFICIENCY VIRUS INFECTION” (DUKE UNIVERSITY, priority 1994, dated 1995).
# Where no end group is shown, it is not given here.
# Tested on: T cells
# Conditions: T helper epitopes of Clerici et al 1989; share of population studied; cited from earlier work
row,Substance,% Responding
1,HEDIISLWNQSLK [T2],54%
2,KQIINMWQEVGKAMYA [T1],77%
3,"TH4: T helper epitope, amino acids 834-848 of gp41 (QGACRAIRHIPRRIR; Transmembrane protein gp41; UniProt P04578 834-848, looked up, fragment)",75%

# Same assay, conditions: T helper epitopes of Schrier et al 1989; share of population studied; cited from earlier work
row,Substance,% Responding
1,"gp41-1: T helper epitope, amino acids 603-614 of gp41 (ICTTAVPWNASW; Transmembrane protein gp41; UniProt P04578 603-614, looked up, fragment)",41%
2,"gp41-2: T helper epitope, amino acids 609-620 of gp41 (PWNASWSNKSLE; Transmembrane protein gp41; UniProt P04578 609-620, looked up, fragment)",42%
3,"gp41-3: T helper epitope, amino acids 655-667 of gp41 (KNEQELLELDKWA; Transmembrane protein gp41; UniProt P04578 655-667, looked up, fragment)",38%
4,"gp41-5: T helper epitope, amino acids 737-749 of gp41 (GGERDRDRSIRLV; Transmembrane protein gp41; UniProt P04578 737-749, looked up, fragment)",21%
5,"gp41-7: T helper epitope, amino acids 584-609 of gp41 (ERYLKDQQLLGIWGCSGKLICTTAVP; Transmembrane protein gp41; UniProt P04578 584-609, looked up, fragment)",24%
6,"gp120-2: T helper epitope, amino acids 115-126 of gp120 (SLKPCVKLTPLC; Envelope glycoprotein gp120; UniProt P04578 115-126, looked up, fragment)",38%
7,"gp120-5: T helper epitope, amino acids 368-377 of gp120 (DPEIVTHSFN; Envelope glycoprotein gp120; UniProt P04578 368-377, looked up, fragment)",21%
8,"pol-1: T helper epitope, amino acids 899-913 of pol",28%
9,"pol-2: T helper epitope, amino acids 923-937 of pol",38%
10,"pol-3: T helper epitope, amino acids 942-954 of pol",48%
11,"pol-4: T helper epitope, amino acids 720-730 of pol (PSINNETPGIR; UniProt P04585 720-730, looked up, fragment)",35%

# Tested on: Normal Human Peripheral Blood Lymphocytes
# Conditions: not given
row,Substance,Inhibition of normal T cell response to tetanus toxoid
1,"CTRPNNNTRKSIRIQRGPG [SP-10, CTRPNNNTRKSIRIQRGPG]",no inhibition of normal T cell response to tetanus toxoid was observed
